Like-named read-outs stand apart in the source and are kept apart here.
Columns and labels:
[1] = test system: E.coli LPS induced shock; settings: Fig 1
Protocol: In a first experiment outbred mice were divided into groups and received treatment either with a hamster anti-murine TNF antibody TN3 19.12 or with the xanthine derivative, pentoxifylline.
Each group of animals received 60mg/kg E.coli LPS by intravenous injection into a tail vein.
Those groups of animals treated with TN3 19.12 received between 0.1 and 30mg/kg of the antibody by intravenous injection of 0.1ml of liquid into the tail vein 2 hours before LPS administration.
Those groups to be treated with pentoxifylline received between 1mg/kg and 300mg/kg intravenously five minutes prior to LPS administration.
In control experiments animals received an injection of an equivalent volume of saline.
The groups received one of three different treatment as follows: • A) Control - received 60mg/kg E.coli LPS intravenously followed by saline injection; • B) Received 1mg/kg TN3 19.12 i.v. 2 hrs prior to challenge with 60mg/kg E.coli LPS i.v. and 1mg/kg pentoxifylline i.v. 5 mins prior to challenge; • C) As B) but these mice also received repeat doses of 1mg/kg pentoxifylline 24,48 and 72 hours after LPS challenge.

[2] = test system: Salmonella abortus equi LPS induced shock; assay: Salmonella abortus equi LPS induced shock model in galactosamine sensitised mice (inhibition of mortality); format: in vivo, C57BL mice; settings: 100mg/kg pentoxifylline alone; Fig 5
Protocol: Similar experiments to those described above were carried out in galactosamine sensitised C57BL mice which were challenged with LPS from Salmonella abortus equi. Mortality was measured 96 hrs after the LPS challenge.

## CC(=O)CCCCn1c(=O)c2c(ncn2C)n(C)c1=O [pentoxifylline, 3,7-dimethyl-1-(5-oxohexyl)xanthine]
[1]; pentoxifylline alone 1mg/kg i.v. five minutes prior to 60mg/kg E.coli LPS i.v.
  effect on mortality (mean deaths per experiment): no effect
[1]; pentoxifylline alone at higher doses than 1mg/kg (up to 300mg/kg) i.v. five minutes prior to LPS
  effect on mortality (mean deaths per experiment): accelerated mortality
[2]
  protective effect (mortality): no protective effect

Reference: patent publication EP0564461B1, “THE USE OF ANTIBODIES TO TNF OR FRAGMENTS DERIVED THEREOF AND XANTHINE DERIVATIVES FOR COMBINATION THERAPY AND COMPOSITIONS THEREFOR” (CELLTECH THERAPEUTICS LIMITED, priority 1990, dated 1992)
